This is an account of results in publication PMC10788941, “Solubilizer Tag Effect on PD-L1/Inhibitor Binding Properties for m-Terphenyl Derivatives” (ACS Medicinal Chemistry Letters, 2023).

By IC50 is commonly meant the concentration that inhibits the measured activity by half. A high value points to lower potency.

For data set [1], the target named is T1, PD-1/PD-L1 complex (hPD-1, hPD-L1) (Homo sapiens, UniProt Q9NZQ7).
T1 construct: purchased Cis-Bio
In words: HTRF assay of PD-1/PD-L1 complex disruption (Cis-Bio kit). Type of data set: binding. Particulars: disruption of PD-1/PD-L1 complex, n = 2. The source says:
4.3. Homogenous Time-Resolved Fluorescence
HTRF (Homogeneous Time Resolved Fluorescence) is a widely used technology for homogenous analyte measurement, particularly in high-throughput screening for drug target studies.
This technology combines fluorescence resonance energy transfer (FRET) with tim e-resolved measurement. In TR-FRET assays, a signal is generated when a donor and an acceptor molecule are in proximity (so-called FRET distance), transfer energy through FRET. Both fluorophores are attached to the monoclonal antibodies that are then specifically detecting particular tags on target proteins.
The commercially available Cis-Bio assay kit was used to perform the HTRF assay. Following the standard protocol, the measurement was carried out at a 20 µL final volume with a 5 nM concentration of hPD-1 and 50 nM concentration of hPD-L1 in the final formulation. Separate dilution […]
compounds. Analyte and detection reagents (anti-analyte conjugated donor and acceptor conjugated […]
plate was left for 1 h of incubation and it was read on an HTRF certified microplate reader Tecan Spark
20M. Output data were subjected to background subtraction on negative control (no PD-1), and normalization in correlation to the positive control (no inhibitor) and averaged. Resulting data points were then fitted with Hill’s equation to generate IC50 using Mathematica 12. […]
On the technique in general: TR-FRET usually uses a lanthanide donor and a delayed reading to cut background.

The target in data set [2] is T2, PD-1/PD-L1 immune checkpoint (Homo sapiens, UniProt Q9NZQ7).
T2 construct: host or cells: CHO/TCRAct/PD-L1 cells (PD-L1); Jurkat-ECs (PD-1)
Nature of the data set: cell-based PD-1/PD-L1 immune checkpoint blockade (ICB) assay, Jurkat-ECs with CHO/TCRAct/PD-L1 cells, luciferase readout. Particulars: for activation of Jurkat-ECs (fold induction): relative to DMSO-treated cells; for dose-dependent activation of Jurkat-ECs and toxicity: different concentrations, Figure S1. The method, then:
4.4. PD-1/PD-L1 immune checkpoint blockade (ICB) assay
For the in vitro analysis of the bioactivity of the molecules an Immune Checkpoint Blockade assay was performed 4 CHO/TCRAct/PD -L1 cells (Promega), overexpressing an artificial TCR - activator construct and PD -L1, were seeded on 96 -well white plates at the density of 10 000 cells/well.
The next day, the cells were overlaid with the effector Jurkat T cells (Jurkat -ECs, Promega, 20 000 cells/well), overexpressing PD -1 and containing construct assuring an NFAT -induced expression of luciferase, either in the presence of the indicated concentrations of the compounds with DMSO -only as a control (the concentration of DMSO was kept constant at 0.1%) or durvalumab (Selleckchem), as a positive control, with untreated cells as controls. Activation of the Jurkat -ECs, reflected by luciferase activity, was monitored by luminescence measurements after 6 h of incubation (37°C, 5%CO 2), and […]
20 min of additional incubation with the Bio-GloTM Assay reagent (Promega) at room temperature.
The luminescence was read on the Spark microplate reader (Tecan). The data is presented as fold induction of the luminescence signal relative to either untreated (for durvalumab) or DMSO-treated (for compounds) cells. Data points represent mean ± SD values from duplicates. […]
HCl, 0.25 mM oxidized glutathione, and 0.25 mM reduced glutathione. After the refolding step, the protein was dialyzed 3 times against buffer containing 10 mM Tris-HCl pH 8.0 and 20 mM NaCl. The final step of purification consisted of size exclusion chromatography using a Superdex 75 column and 10 mM Tris- HCl, 20 mM NaCl based buffer for crystallization or PBS buffer for NMR based experiments. The correctly folded state and purity of the PD-L1 protein were checked by NMR and […]
The freshly purified protein was concentrated to 5 mg/mL and then mixed in a 1:3 molar ratio with an excess of the 2f inhibitor, finally the solution was centrifuged for 1 minute at max speed. The clarified solution was then used for screening using multiple available commercial screens. The diffraction quality crystals were obtained from a sitting drop set up at room temperature with a buffer containing 27 % w/v PEG 3350, 0.1 M Bis-Tris propane, pH 7.0 and 0.2 M Lithium sulfate. Crystals were cryo-protected using glycerol and flash frozen with liquid nitrogen.
The X-ray diffraction data were collected at the BL13 - XALOC beamline at ALBA (Barcelona, Spain).6The data were indexed, integrated, and scaled using XDS, SCALE, and Aimless.
7–9 The initial phase estimates was obtained by molecular replacement calculated in Phaser using PDB:5C3T as a model.10 The refinement was performed using CCP4cloud11 and verified using Coot .12–14 The structure was deposited in the Protein Data Bank with accession number 8R6Q. The protein-ligand interactions were assessed using PLIP server15 and visualized using PyMol (The PyMOL Molecular Graphics System, Version 2.0 Schrödinger, LLC).
4.6. Crystal structure determination for compound 2a
X-ray diffraction data for single crystals of compound 2a was collected using XtalLAB Synergy-S four-circle diffractometer with a mirror monochromator and a microfocus CuKα radiation source (λ = 1.5418 Å). The CryoStream cryostat system was used to allow low-temperature

T1 sequence (Q9NZQ7 19-238 limits assumed, one chain of several): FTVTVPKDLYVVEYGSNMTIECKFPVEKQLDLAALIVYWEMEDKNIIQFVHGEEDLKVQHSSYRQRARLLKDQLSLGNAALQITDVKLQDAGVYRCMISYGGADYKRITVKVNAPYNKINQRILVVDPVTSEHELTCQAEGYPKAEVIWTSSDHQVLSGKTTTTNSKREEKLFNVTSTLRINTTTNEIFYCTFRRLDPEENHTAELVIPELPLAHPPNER
T2 sequence (Q9NZQ7 19-290): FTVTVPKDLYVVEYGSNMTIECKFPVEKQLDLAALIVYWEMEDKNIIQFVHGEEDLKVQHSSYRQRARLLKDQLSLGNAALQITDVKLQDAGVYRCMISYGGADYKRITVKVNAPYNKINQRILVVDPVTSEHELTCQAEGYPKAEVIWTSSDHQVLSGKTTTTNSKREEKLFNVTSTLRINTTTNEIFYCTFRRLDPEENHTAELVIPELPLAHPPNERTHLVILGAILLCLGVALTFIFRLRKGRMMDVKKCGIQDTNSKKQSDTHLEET

Take `COc1cc(-c2cccc(-c3ccc4c(c3)OCCO4)c2Cl)ccc1CN1CCCC(C(=O)NCCO)C1` (centres unmarked) [4f]: the IC50 in data set [1] was less than 0.5 nM.

With `COc1cc(-c2cccc(-c3ccc4c(c3)OCCO4)c2Cl)ccc1CN1CCCC(C(=O)NN(C)C)C1` (centres unmarked) [4d], the IC50 in data set [1] amounted to 37 ± 1.75 nM.

In the case of `COc1cc(-c2cccc(-c3ccc4c(c3)OCCO4)c2Cl)ccc1CN1CCCC(C(=O)NN)C1` (centres unmarked) [4c], the IC50 in data set [1] was 79.9 ± 5.7 nM.

`COc1cc(-c2cccc(-c3ccc4c(c3)OCCO4)c2Cl)ccc1CN1CCC(C(=O)NC(CO)CO)CC1` [5g] registered an IC50 in data set [1] of less than 0.5 nM.

In data set [1], `COc1cc(-c2cccc(-c3ccc4c(c3)OCCO4)c2Cl)ccc1CN1CCCC1C(=O)NN(C)C` (centres unmarked) [1d] yielded an IC50 of less than 0.5 nM.

With `COc1cc(-c2cccc(-c3ccc4c(c3)OCCO4)c2Cl)ccc1CN1CCCCC1C(=O)O` (centres unmarked) [3a], in data set [1], the IC50 worked out at 0.58 ± 0.05 nM.

Compound `COc1cc(-c2cccc(-c3ccc4c(c3)OCCO4)c2Cl)ccc1CN1CCC(C(=O)NC(CO)(CO)CO)C1` (centres unmarked) [2h] showed an IC50 in data set [1] of less than 0.5 nM. Further, the “activation of Jurkat-ECs (fold induction)” value in data set [2] (compound 1 μM) was “bioactivity was observed”; in data set [2] (compound 6.4 μM), “T cell activation dropped down”.

In turn, `COc1cc(-c2cccc(-c3ccc4c(c3)OCCO4)c2Cl)ccc1CN1CCC(C(=O)NN)C1` (centres unmarked) [2c] showed an IC50 in data set [1] of less than 0.5 nM.

For the compound `COc1cc(-c2cccc(-c3ccc4c(c3)OCCO4)c2Cl)ccc1CN1CCC(C(=O)NCCN)C1` (centres unmarked) [2e], the IC50 in data set [1] is 4.94 ± 0.37 nM. For the same compound, the “activation of Jurkat-ECs (fold induction)” value is “bioactivity was observed” in data set [2] (compound 1 μM); “T cell activation dropped down and tox” in data set [2] (compound 6.4 μM, 6.4 µM).

Compound `COc1cc(-c2cccc(-c3ccc4c(c3)OCCO4)c2Cl)ccc1CN1CCC(C(=O)NN)CC1` [5c] showed an IC50 in data set [1] of 96.5 ± 2.71 nM.

`COc1cc(-c2cccc(-c3ccc4c(c3)OCCO4)c2Cl)ccc1CN1CCC(C(=O)NO)CC1` [5b]: the IC50 in data set [1] came out at 766 ± 71.5 nM. This IC50 is about 7.9-fold higher than that of the compound before.

For `COc1cc(-c2cccc(-c3ccc4c(c3)OCCO4)c2Cl)ccc1CN1CCCCC1C(=O)NC(CO)CO` (centres unmarked) [3g], the IC50 in data set [1] was 63.6 ± 1.86 nM.

`COc1cc(-c2cccc(-c3ccc4c(c3)OCCO4)c2Cl)ccc1CN1CCCC1C(=O)NO` (centres unmarked) [1b]: in data set [1], the IC50 was more than 1000 nM.

Take `COc1cc(-c2cccc(-c3ccc4c(c3)OCCO4)c2Cl)ccc1CN1CCC(C(=O)NC(CO)CO)C1` (centres unmarked) [2g]: the IC50 in data set [1] is less than 0.5 nM. Besides, the “activation of Jurkat-ECs (fold induction)” value in data set [2] (compound 1 μM) is “bioactivity was observed”; in data set [2] (compound 6.4 μM), “activity was retained”. Moreover, in data set [2], the “dose-dependent activation of Jurkat-ECs and toxicity” value (“dose-dependent activation” below) is “highest dose-dependent activity and lowest toxicity”.

In the case of `COc1cc(-c2cccc(-c3ccc4c(c3)OCCO4)c2Cl)ccc1CN1CCCC(C(=O)NC(CO)(CO)CO)C1` (centres unmarked) [4h], the IC50 in data set [1] turned out to be 19.3 ± 1.22 nM.

For `COc1cc(-c2cccc(-c3ccc4c(c3)OCCO4)c2Cl)ccc1CN1CCCC1C(=O)NN` (centres unmarked) [1c], the IC50 in data set [1] amounted to 76.2 ± 2.35 nM.

In turn, `COc1cc(-c2cccc(-c3ccc4c(c3)OCCO4)c2Cl)ccc1CN1CCCCC1C(=O)NCCO` (centres unmarked) [3f] showed an IC50 in data set [1] of 0.9 ± 0.05 nM. This IC50 is about 85-fold lower than that of the compound before.

Compound `COc1cc(-c2cccc(-c3ccc4c(c3)OCCO4)c2Cl)ccc1CN1CCCC1C(=O)O` (centres unmarked) [1a] had an IC50 in data set [1] of less than 0.5 nM.

`COc1cc(-c2cccc(-c3ccc4c(c3)OCCO4)c2Cl)ccc1CN1CCCCC1C(=O)NC(CO)(CO)CO` (centres unmarked) [3h] registered an IC50 in data set [1] of 477 ± 83.5 nM.

As to `COc1cc(-c2cccc(-c3ccc4c(c3)OCCO4)c2Cl)ccc1CN1CCCC(C(=O)O)C1` (centres unmarked) [4a], the IC50 in data set [1] was less than 0.5 nM.

The compound `COc1cc(-c2cccc(-c3ccc4c(c3)OCCO4)c2Cl)ccc1CN1CCC(C(=O)O)CC1` [5a] returned a concentration for half-maximal inhibition (IC50) in data set [1] of less than 0.5 nM.

For the compound `COc1cc(-c2cccc(-c3ccc4c(c3)OCCO4)c2Cl)ccc1CN1CCC(C(=O)NCCN)CC1` [5e], in data set [1], the IC50 was less than 0.5 nM.

In data set [1], `COc1cc(-c2cccc(-c3ccc4c(c3)OCCO4)c2Cl)ccc1CN1CCCC1C(=O)NC(CO)(CO)CO` (centres unmarked) [1h] had an IC50 of less than 0.5 nM.

The compound `COc1cc(-c2cccc(-c3ccc4c(c3)OCCO4)c2Cl)ccc1CN1CCC(C(=O)O)C1` (centres unmarked) [2a] registered an IC50 in data set [1] of 1.1 ± 0.07 nM.

`COc1cc(-c2cccc(-c3ccc4c(c3)OCCO4)c2Cl)ccc1CN1CCC(C(=O)NCCO)C1` (centres unmarked) [2f] had an IC50 in data set [1] of less than 0.5 nM. In addition, the “dose-dependent activation” value in data set [2] was “highest dose-dependent activity and lowest toxicity”.

Regarding `COc1cc(-c2cccc(-c3ccc4c(c3)OCCO4)c2Cl)ccc1CN1CCCC1C(=O)NCCN` (centres unmarked) [1e], the half-inhibitory concentration (IC50) in data set [1] is less than 0.5 nM.

In the case of `COc1cc(-c2cccc(-c3ccc4c(c3)OCCO4)c2Cl)ccc1CN1CCC(C(=O)NCCO)CC1` [5f], the IC50 in data set [1] was found to be 0.55 ± 0.03 nM.

With `COc1cc(-c2cccc(-c3ccc4c(c3)OCCO4)c2Cl)ccc1CN1CCC(C(=O)NC(CO)(CO)CO)CC1` [5h], in data set [1], the IC50 was less than 0.5 nM.

The compound `COc1cc(-c2cccc(-c3ccc4c(c3)OCCO4)c2Cl)ccc1CN1CCC(C(=O)NO)C1` (centres unmarked) [2b] gave an IC50 in data set [1] of 0.94 ± 0.01 nM. Besides, the “activation of Jurkat-ECs (fold induction)” value in data set [2] (compound 1 μM) is reported as “bioactivity was observed”.

`COc1cc(-c2cccc(-c3ccc4c(c3)OCCO4)c2Cl)ccc1CN1CCCCC1C(=O)NN` (centres unmarked) [3c] showed an IC50 in data set [1] of 16.7 ± 1.63 nM.

On to `COc1cc(-c2cccc(-c3ccc4c(c3)OCCO4)c2Cl)ccc1CN1CCCC1C(=O)NC(CO)CO` (centres unmarked) [1g], for which the IC50 in data set [1] was less than 0.5 nM.

In data set [1], `COc1cc(-c2cccc(-c3ccc4c(c3)OCCO4)c2Cl)ccc1CN1CCCC(C(=O)NO)C1` (centres unmarked) [4b] had an IC50 of 1.09 ± 0.07 nM.

The compound `COc1cc(-c2cccc(-c3ccc4c(c3)OCCO4)c2Cl)ccc1CN1CCC(C(=O)NN(C)C)C1` (centres unmarked) [2d] registered an IC50 in data set [1] of 12 ± 2.01 nM. In addition, in data set [2] (compound 6.4 μM), the “activation of Jurkat-ECs (fold induction)” value is on record as “activity was retained”. Further, in data set [2], the “dose-dependent activation” value was “highest dose-dependent activity and lowest toxicity”.

Turning to `COc1cc(-c2cccc(-c3ccc4c(c3)OCCO4)c2Cl)ccc1CN1CCCCC1C(=O)NN(C)C` (centres unmarked) [3d], the midpoint of inhibition in data set [1], the IC50, lay at 56 ± 1.33 nM.

For the compound `COc1cc(-c2cccc(-c3ccc4c(c3)OCCO4)c2Cl)ccc1CN1CCCC1C(=O)NCCO` (centres unmarked) [1f], the IC50 in data set [1] is less than 0.5 nM.

In data set [1], `COc1cc(-c2cccc(-c3ccc4c(c3)OCCO4)c2Cl)ccc1CN1CCC(C(=O)NN(C)C)CC1` [5d] showed an IC50 of less than 0.5 nM.
